The target in this experiment is DNA repair protein RAD51 homolog 1 (Homo sapiens) (UniProt Q06609). The experiment can be described thus: inhibitors of RAD51 DNA binding, dose response, biochemical, fluorescence (AID 1436).

Experimental findings from PubChem BioAssay AID1436 (PCMD, 2008) are described below.

The term IC50 denotes the midpoint of a concentration-inhibition curve.

Structures are written as SMILES. Inconclusive results are not listed. The source made the active and inactive calls. The rule behind the calls is not given here.

DNA repair protein RAD51 homolog 1 (Homo sapiens), sequence (Q06609 whole entry, looked up): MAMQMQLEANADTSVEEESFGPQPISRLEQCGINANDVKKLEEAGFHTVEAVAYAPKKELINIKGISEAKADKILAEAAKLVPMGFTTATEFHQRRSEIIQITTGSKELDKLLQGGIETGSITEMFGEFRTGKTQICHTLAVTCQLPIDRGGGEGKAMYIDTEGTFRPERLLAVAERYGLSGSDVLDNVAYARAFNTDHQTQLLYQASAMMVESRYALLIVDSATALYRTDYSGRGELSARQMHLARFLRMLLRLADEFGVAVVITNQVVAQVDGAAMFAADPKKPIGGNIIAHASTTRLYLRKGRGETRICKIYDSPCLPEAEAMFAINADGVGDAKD

`COc1cccc2c1C(=O)c1c(O)c3c(c(O)c1C2=O)C[C@@](O)(C(=O)CO)C[C@@H]3O[C@H]1C[C@H](N)[C@@H](O)[C@H](C)O1`: the IC50 was > 85 µM (inactive). On to `COC(=O)c1ccc(=O)c2nc3/c(=C/O)c(O)cc(=O)c3[nH]c12`, for which the IC50 was > 42.5 µM (inactive).
